Biological target: T1, Tyw1 30-251 (Schizosaccharomyces japonicus, UniProt B6K6D6)
T1 construct: flavodoxin-like domain with N-terminal extension, residues 30-251; N-terminal TRX-6His or MBP-6His tag with TEV site, tag cleaved; E. coli KRX; monomer; calculated mass 24940 Da, MS 25010 Da
T1 sequence (B6K6D6 30-251): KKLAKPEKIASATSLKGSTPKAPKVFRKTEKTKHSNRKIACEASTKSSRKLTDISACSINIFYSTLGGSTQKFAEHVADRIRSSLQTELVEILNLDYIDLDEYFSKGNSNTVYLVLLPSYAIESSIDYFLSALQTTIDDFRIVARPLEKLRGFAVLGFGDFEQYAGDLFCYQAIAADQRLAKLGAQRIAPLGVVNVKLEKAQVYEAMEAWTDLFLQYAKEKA
Assay: X-ray crystal structure (molecular replacement, […] A)
Format: binding
Conditions: co-purified oxidized FMN; crystals pH 8.5, 288 K; unit occupancy

Cc1cc2nc3c(=O)[nH]c(=O)nc-3n(C[C@H](O)[C@H](O)[C@H](O)COP(=O)(O)O)c2cc1C [FMN]
X-ray crystal structure (molecular replacement, 1.5 A): FMN density was strong and was modeled with unit occupancy in both structures.

— paper PMC9186531, “Biochemical and structural characterization of the flavodoxin-like domain of the Schizosaccharomyces japonicus putative tRNA ^Phe 4-demethylwyosine synthase Tyw1 in complex with FMN” (microPublication Biology, 2022)
